“Also recorded” adds a separate entry of the source.
What was measured:
[1] = tested on: referred visceral hypersensitivity induced by pancreatic inflammation; settings: microinjection into the RVM (Vera-Portocarrero et al. 2006); cited from earlier work
[2] = tested on: spinal neurons, colorectal distention (CRD); settings: microinjection into the RVM (Zhuo et al.); cited from earlier work
[3] = tested on: rats with experimental colonic hypersensitivity (butyrate), referred lumbar hypersensitivity; experiment: colonic hypersensitivity model (intracolonic sodium butyrate): referred lumbar hypersensitivity, von Frey mechanical threshold; format: in vivo, Sprague Dawley rats; settings: butyrate rats; for effect of concurrent RVM antagonist on the effect of RVM sumatriptan: sumatriptan 10 μg RVM; for effect of concurrent systemic (IP) antagonist on the effect of systemic sumatriptan: isamoltane 4 mg/kg IP or BRL15722 0.3 mg/kg IP
Procedure: (§1) Adult male Sprague Dawley rats (Harlan, Indianapolis, Ind.), weighing 150-200 g, were maintained in a climate-controlled room with ad lib food and water on a 12 hour/12 hour light/dark cycle (lights on at 07:00 hours). All procedures followed the policies of the International Association for the Study of Pain and the NIH guidelines for the handling and use of laboratory animals. Studies were approved by the University of Arizona IACUC.
(§2) Dibutyltin dichloride (DBTC) was obtained from Sigma-Aldrich (Milwaukee, Wis.) and dissolved in 100% ethanol to a concentration of 8 mg/kg (Sparmann et al., Gastroenterology. 112:1664-1672 (1997))). Sumatriptan succinate was obtained from Toronto Research Chemicals (ON, Canada) and dissolved in saline to 1, 3, and 10 μg for RVM microinjections and 100, 200, and 300 μg/kg for systemic injections (Kayser et al., Br J Pharmacol. 137:1287-1297 (2002)). The 5HT1B antagonist isamoltane and the 5HT1D antagonist BRL15722 were obtained from Tocris (Elllisville, Mo.). Isamoltane was dissolved in saline to a concentration of 3 μg for RVM microinjection and to a concentration of 4 mg/kg (Ottani et al., Eur J Pharmacol. 497:181-186 (2004)) for system application. BRL15722 was dissolved in 10% DMSO to a concentration of 3 μg for RVM microinjection and to a concentration of 0.3 mg/kg (Ottani et al., Eur J Pharmacol. 497:181-186 (2004)) for systemic application.
(§3) For the experiments involving microinjection of drugs into the RVM, rats underwent surgeries to implant RVM cannulae. After five days of recovery, rats received either intravenous injection of DBTC to induce pancreatitis, or intracolonic injection of sodium butyrate to induce colonic hypersensitivity. Animals were monitored for development of visceral hypersensitivity on the subsequent days. On day six after either induction of pancreatitis or colonic hypersensitivity, animals underwent baseline behavioral measurements. Sumatriptan was microinjected into the RVM at different doses (separate groups of rats for each dose) and animals were monitored behaviorally for two h after sumatriptan application in the RVM. For experiments investigating the effects of serotonin antagonists, the drugs were microinjected concurrently with injection of sumatriptan and animals were monitored for the subsequent two h. Separate groups of animals were microinjected with the antagonists alone to control for possible effects of the drugs by themselves.
(§4) For the experiments involving systemic drug administration, rats received intravenous injection of DBTC to induce pancreatitis or intracolonic injection of sodium butyrate to induce colonic hypersensitivity. On day six after either induction of pancreatitis of colonic hypersensitivity, animals underwent baseline behavioral measurements. Sumatriptan was injected intraperitoneally at different doses (separate groups of rats for each dose) and the animals were monitored behaviorally every 20 min for two h after injection. For experiments investigating the effects of serotonin antagonists, the drugs were injected intraperitoneally immediately following the injection of sumatriptan (separate groups for each respective antagonist). Separate groups of animals were injected with the antagonists alone. Additionally, separate groups of animals were injected with sumatriptan systemically and microinjected with the antagonists in the RVM to determine if the RVM is a site of action for systemically applied sumatriptan. The microinjection of antagonists into the RVM was done immediately following the systemic injection of sumatriptan. All animals were tested for behavioral signs of hypersensitivity every 20 min for two h after the end of the injections.
Colonic hypersensitivity was induced by enemas of a sodium butyrate solution ([…]) twice daily for 3 days (Bourdu et al., Gastroenterology. 128:1996-2008 (2005)). […]

[4] = tested on: rats with experimental pancreatitis (DBTC), referred abdominal hypersensitivity; experiment: experimental pancreatitis model (IV DBTC): referred abdominal hypersensitivity, withdrawals to von Frey filament; format: in vivo, Sprague Dawley rats; settings: DBTC rats; for effect of concurrent RVM antagonist on the effect of RVM sumatriptan: sumatriptan 10 μg RVM; for effect of concurrent RVM antagonist on the effect of RVM sumatriptan / effect of RVM antagonist on the effect of systemic sumatriptan: antagonist 3 μg RVM
Procedure: as §1, §2
as §3, with “Sumatriptan was microinjected into the RVM at different doses (separate groups of rats for each dose) and animals were monitored behaviorally for two h after sumatriptan application in the RVM.” left out
as §4, with “Sumatriptan was injected intraperitoneally at different doses (separate groups of rats for each dose) and the animals were monitored behaviorally every 20 min for two h after injection. For experiments investigating the effects of serotonin antagonists, the drugs were injected intraperitoneally immediately following the injection of sumatriptan (separate groups for each respective antagonist).” left out
Pancreatitis was produced by a tail vein injection of dibutyltin dichloride (DBTC, Aldrich, Milwaukee, Wis., 0.25 cc) dissolved in 100% ethanol at a dose of 8 mg/kg under isofluorane anesthesia (2-3 liters/min, 4.0%/vol until anesthetized, then 2.5%/vol throughout the procedure; Vera-Portocarrero et al., Gastroenterology. 130:2155-2164 (2006)). Control animals were injected with the vehicle solution only (100% ethanol, 0.25 mL).
Referred abdominal hypersensitivity in the pancreatitis model was quantified by measuring the number of withdrawal events evoked by application of a calibrated von Frey filament (determined by either abdominal withdrawal, licking of the abdominal area, or whole body withdrawal). Rats were placed inside Plexiglas boxes on an elevated fine fiberglass screen mesh and acclimated for 30 minutes before testing. […]

[5] = sumatriptan 300 μg/kg IP, listed as BRL1 5722

Row | Structure (SMILES) | referred visceral hypersensitivity induced by pancreatic inflammation [1] | spontaneous activity and responses of spinal neurons to colorectal distention [2] | effect of concurrent RVM antagonist on the effect of RVM sumatriptan ([3]; antagonist 3 μg RVM) | effect of concurrent RVM antagonist on the effect of RVM sumatriptan ([3]; antagonist 3 μg RVM, listed as BRL1 5722) | effect of RVM antagonist on the effect of systemic sumatriptan ([3]; sumatriptan 300 μg/kg IP, antagonist 3 μg RVM) | effect of concurrent systemic (IP) antagonist on the effect of systemic sumatriptan ([3]; sumatriptan 300 μg/kg IP) | effect of concurrent systemic (IP) antagonist on the effect of systemic sumatriptan [3, 5] | effect of concurrent RVM antagonist on the effect of RVM sumatriptan [4] | effect of concurrent RVM antagonist on the effect of RVM sumatriptan ([4]; listed as BRL1 5722) | effect of RVM antagonist on the effect of systemic sumatriptan ([4]; sumatriptan 300 μg/kg IP) | effect of RVM antagonist on the effect of systemic sumatriptan [4, 5] | effect of concurrent systemic (IP) antagonist on the effect of systemic sumatriptan ([4]; sumatriptan 300 μg/kg IP, isamoltane 4 mg/kg IP or BRL15722 0.3 mg/kg IP)
1 | CCN(CC)CC(=O)Nc1c(C)cccc1C [lidocaine] | attenuated referred visceral hypersensitivity | reduced spontaneous activity and responses of spinal neurons to colorectal distention; also recorded: reduced spontaneous activity and responses of spinal neurons to CRD |  |  |  |  |  |  |  |  |  | 
2 | OC(CN1CCN(c2cccc(Cl)c2)CC1)C(c1ccccc1)c1ccccc1 (stereo not drawn) [BRL15722] |  |  | did not block the effect of RVM sumatriptan | did not have any effect | failed to antagonize the effects of systemic sumatriptan; also recorded: did not block the effect of systemic sumatriptan | blocked the effect of systemic sumatriptan | reduced the effects of systemic sumatriptan | did not block the effect of RVM sumatriptan | did not have any effect | did not block the effect of sumatriptan | failed to antagonize the effects of systemic sumatriptan | reduced the effects of systemic sumatriptan; also recorded: blocked the effect of sumatriptan

— patent US20090163451A1, “METHODS FOR TREATING VISCERAL PAIN” (priority 2007, published 2009)
